# Results reported in patent US20190060340A1, “NOVEL AMINOGLYCOSIDES AND USES THEREOF IN THE TREATMENT OF GENETIC DISORDERS” (Technion Research & Development Foundation Limited, priority 2007, published 2019).
# “And” between values parts separate entries of the source, which are not always exact repeats. Identical values can stand only once.
# Tests used:
# [1] = system: eukaryotic translation; assay: Inhibition of eukaryotic translation; assay type: biochemical
# [2] = system: Escherichia coli ATCC 25922; assay: Antibacterial activity, MIC by double-microdilution method; assay type: cell-based; conditions: ATCC 25922; for MIC: Escherichia coli, ATCC25922, read-out: MIC E. coli
# Protocol: (§1) In order to compare the observed aminoglycoside-induced stop codon read-through activity in mammalian cells to antibacterial activity thereof, Compounds 1-9 were further investigated as antibacterial agents against both Gram-negative (E. coli) and Gram-positive (Bacillus subtilis) bacteria, and the minimal inhibitory concentration (MIC) values were determined by using a microdilution assay with paromomycin and gentamicin as controls, and the results are presented in Table 18 hereinabove.
# (§2) The bacterial strains used were Escherichia coli ATCC 25922, and Bacillus Subtilis ATCC 6633. […] All the experiments were performed in triplicates and analogous results were obtained in two to four different experiments.
# [3] = system: Bacillus Subtilis ATCC 6633; assay: as above; assay type: cell-based; conditions: ATCC 6633; for MIC: Bacillus subtilis, ATCC6633, read-out: MIC B. Subtilis
# Protocol: as §1, §2
# [4] = system: R3X nonsense mutation (a premature UGA C stop codon) of the PCDH15 gene; assay: In vitro suppression and translation, pDB650-R3X reporter plasmid in rabbit reticulocyte lysate coupled transcription/translation system; assay type: biochemical, human; conditions: for Conc. (concentration at which maximal suppression level was observed) / Supp. level (%), maximal in-vitro mutation suppression: R3X mutation; for Supp. level (%), maximal in-vitro mutation suppression: 35-kDa product out of total protein; for Supp. level (%), maximal in-vitro mutation suppression / Trans. level (%): at Conc. of maximal suppression; for Concentration (μM) at which maximal suppression was observed, R3X / suppression level (%), maximum in vitro, R3X: Table 20; for suppression level (%), maximum in vitro, R3X: at concentration of maximal suppression; for Trans. level (%): total protein relative to no compound
# Protocol: Initially, Compounds 1-9 were tested for their ability to suppress this nonsense mutation in vitro, using a reporter construct carrying the R3X nonsense mutation (a premature UGA C stop codon) of the PCDH15 gene. Mutations in the PCDH15 gene which encodes protocardherin 15, cause type 1 Usher syndrome (USH1), which is characterized by profound prelingual hearing loss, vestibular areflexia, and prepubertal onset of retinitis pigmentosa (RP). Four different PCDH15 USH1-causing nonsense mutations, R3X, R245X, R643X, and R929X, have been reported in humans.
# Suppression of nonsense mutations by Compounds 1-9 was tested in vitro using a reporter plasmid harboring the R3X mutation of the PCDH15 gene. To create this plasmid, the oligonucleotides 5′-[…]-3′ (SEQ ID NO: 1) and 5′-[…]-3′ (SEQ ID NO: 2) were annealed to each other and inserted into the BamHI and HindIII sites of plasmid pDB650 [6].
# The resulting reporter plasmid pDB650-R3X contained a TGA C nonsense mutation between a 25-kDa polypeptide encoding open reading frame (ORF) and a 10-kDa polypeptide encoding ORF.
# The plasmid was transcribed and translated in a rabbit reticulocyte lysate coupled transcription/translation system (Promega) in the presence of [^35S]-methionine, and the reaction products were separated by SDS-PAGE and quantified using Phosphorlmager analysis. The mutation suppression level was calculated as the relative proportion of the 35-kDa product out of total protein (the sum of 35-kDa and 25-kDa), and the translation level was calculated as the relative proportion of the total protein at each tested compound concentration out of the total protein without the presence of the tested compounds.
# The tested concentrations of paromomycin were 0, 5, 10, 20, 30 and 40 μg/ml, tested concentrations of gentamicin were 0, 5, 10, 20, and 30 μg/ml, and the tested concentrations of Compounds 1-9 were in the range of 0-160 μg/ml.
# Compound 37 was tested for its ability to suppress a nonsense mutation in-vitro, using a reporter construct carrying either R3X nonsense mutation (a premature UGA C stop codon) or R245X nonsense mutation (a premature UGA A stop codon) of the PCDH15 gene, using gentamicin, paromomycin and Compound 3 as standards and following the experimental procedures presented hereinabove.
# For the rat-PGM-β-Gal in vitro readthrough system, the pDB series of reporter plasmids harbor the following elements under SP6 promoter control: an open reading frame (ORF) derived from the 5′ end of the rat PGM gene, which encodes a 25-kDa polypeptide; another small ORF, encoding the 10-kDa alpha complementation region of β-galactosidase, and terminated by tandem, in-frame stop codons (UAA UAG); located between the two ORFs is a DNA fragment derived from PCDH15 cDNA, including the tested stop mutation or the corresponding wild-type codon, and six upstream and downstream flanking codons (except for p.R3X constructs, in which there are only two upstream PCDH15-flanking codons). The fragments were created by annealing the following couples of complementary oligonucleotides:
# The fragments were inserted into the BamHI and HindIII restriction sites of the pDB read-through construct. Reporter plasmids harboring each of the four nonsense mutations and the corresponding wt alleles were in vitro transcribed and translated using the TNT SP6 Coupled Reticulocyte lysate System (Promega) in the presence of [^35S]-methionine and increasing concentrations of aminoglycosides as described previously. […] The degree of suppression was calculated as the relative proportion of the 35-kDa product out of total reaction products (35-kDa and 25-kDa polypeptides). The results are averages of at least three independent experiments.
# [5] = system: G542X (CFTR, Cystic Fibrosis); assay: Dual luciferase in vitro transcription/translation assay; assay type: biochemical, human
# Source text: (§3) DNA fragments derived from the subsequent genes, including the tested stop mutation or the corresponding wild-type codon, and four upstream and downstream flanking codons (except for p.R3X constructs, in which there are only two upstream PCDH15-flanking codons) were cloned into p2Luc plasmid between renilla and firefly luciferase genes as described previously. The formed plasmids, as well as the original p2Luc plasmid containing a TGA C nonsense mutation, were transcribed and translated in vitro and the stop codon suppression efficiency was calculated as described previously.
# (§4) For the dual luciferase in vitro transcription/translation assay, DNA fragments derived from PCDH15, CFTR, Dystrophin and IDUA cDNAs, including the tested stop mutation or the corresponding wild-type codon, and four upstream and downstream flanking codons (except for p.R3X constructs, in which there are only two upstream PCDH15-flanking codons) were created by annealing the couples of complementary oligonucleotides presented above.
# (§5) Fragments were inserted into the SalI and SacI restriction sites of the p2Luc plasmid between renilla and firefly luciferase genes. The afforded plasmids, as well as the original p2Luc plasmid containing a TGA C nonsense mutation, were transcribed and translated using the TNT Reticulocyte Lysate Quick Coupled Transcription/Translation System (Promega™). Each transcription/translation reaction (10 μl, total volume) contained 8 μl TNT T7 Quick Master Mix, 0.2 μl methionine (1 mM), 0.8 μl DNA template (2 μg/μl), 1 μl of either water (blank) or 1 μl solution of increasing concentrations of the tested aminoglycosides in water. Luciferase activity was determined following 90 minutes incubation at 30° C. using the Dual Luciferase Reporter Assay System (Promega™). The total luminescence produced by each one of the proteins was measured separately using the FLx800 multidetection plate reader (Bio-Tek) and the stop codon suppression efficiency was calculated as described previously. The results are averages of at least three independent experiments.
# [6] = system: R3X (PCDH15, Usher Syndrome); assay: as above; assay type: biochemical, human
# Source text: as §3, §4, §5
# [7] = system: prokaryotic translation; assay: Inhibition of prokaryotic translation; assay type: biochemical; conditions: for preference for inhibiting translation in prokaryotes versus eukaryotes: from IC50 values
# [8] = system: Escherichia coli (R477-100); assay: Antibacterial activity, MIC; assay type: cell-based; conditions: for MIC: Escherichia coli, read-out: minimal inhibitory concentration (MIC)
Compound,IC50 [1] [µM],fold more efficient inhibition of eukaryotic translation than gentamicin and paromomycin [1],MIC [2] [µg/mL],MIC [3] [µg/mL],Conc. (concentration at which maximal suppression level was observed) ([4]; in vitro) [µg/mL],"Supp. level (%), maximal in-vitro mutation suppression [4] [%]","Concentration (μM) at which maximal suppression was observed, R3X [4] [µM]","suppression level (%), maximum in vitro, R3X [4]",Maximum in vitro suppression (%) G542X [5] [%],Maximum in vitro suppression (%) R3X [6] [%],efficacy of inhibiting prokaryotic ribosome relative to gentamicin and paromomycin [7],preference for inhibiting translation in prokaryotes versus eukaryotes [7],MIC [8] [µM],Trans. level (%) [4],other results
NC[C@H]1O[C@@H](O[C@@H]2[C@@H](O)[C@H](N)C[C@H](N)[C@H]2O[C@H]2O[C@H](CO)[C@@H](O)[C@H](O)[C@H]2N)[C@H](O)[C@@H]1O [Compound 3],31,about 2 fold,> 512,48,80,21 ± 3,142,21% and 21 ± 9%,0.63 ± 0.29,2.9 ± 0.9,significantly lower,about two-order of magnitude,790,–,"fold higher activity compared to Compound 1 ([4]; R3X, in vitro): over 3 fold; fold higher suppression level compared to Compound 2 ([4]; R3X, in vitro): 13 fold"
NCC[C@H](O)C(=O)N[C@@H]1CC(N)[C@@H](O[C@H]2OC(CO)[C@@H](O)C(O)C2N)C(O[C@@H]2O[C@H](CN)C(O)C2O)C1O (stereo partly drawn) [Compound 37],24,about 3 fold,–,–,–,–,153,71% and 71 ± 9%,5.1 ± 0.6,29.2 ± 3.1,significantly lower,about two-order of magnitude,384,–,–
"NC[C@@H]1O[C@H](O[C@H]2[C@@H](O)[C@H](O[C@@H]3[C@@H](O)[C@H](N)C[C@H](N)[C@H]3O[C@H]3O[C@H](CO)[C@@H](O)[C@H](O)[C@H]3N)O[C@@H]2CO)[C@H](N)[C@@H](O)[C@@H]1O [paromomycin, reference compound]",58,–,12,8,40,49,56,49 ± 6%,0.74 ± 0.08,9.4 ± 0.5,–,about tree order of magnitude,22,about 40%,"Supp. level (%), maximal in-vitro mutation suppression ([4]; listed as Paromomycin): 49 ± 6%; Trans. level (%) ([4]; listed as Paromomycin): 40 ± 13%"
gentamicin [reference compound],60,–,–,–,30,49 ± 4,46,50 ± 3%,2.8 ± 0.7,14.0 ± 1.0,–,about tree order of magnitude,–,about 40%,MIC E. coli [2]: 4 µg/mL; MIC B. Subtilis [3]: <0.5 µg/mL; Trans. level (%) ([4]; listed as Gentamicin): 40 ± 9%; minimal inhibitory concentration (MIC) ([8]; Escherichia coli (R477-100)): 6 µM
